Among the data in patent US20230301981A1, “TLR7/8 ANTAGONISTS AND USES THEREOF” (Merck Patent GmbH, priority 2020, published 2023) are IC50 values, retold here.

The term IC50 denotes the point on the concentration scale where inhibition reaches its midpoint.

For test [1], the target named is T1, TLR8 (Homo sapiens, UniProt Q9NR97).
T1 construct: Human whole blood from healthy donors was drawn into EDTA Vacutainer tubes; endogenous in cells; host or cells: human whole blood (healthy donors)
T1 sequence (Q9NR97 27-1041): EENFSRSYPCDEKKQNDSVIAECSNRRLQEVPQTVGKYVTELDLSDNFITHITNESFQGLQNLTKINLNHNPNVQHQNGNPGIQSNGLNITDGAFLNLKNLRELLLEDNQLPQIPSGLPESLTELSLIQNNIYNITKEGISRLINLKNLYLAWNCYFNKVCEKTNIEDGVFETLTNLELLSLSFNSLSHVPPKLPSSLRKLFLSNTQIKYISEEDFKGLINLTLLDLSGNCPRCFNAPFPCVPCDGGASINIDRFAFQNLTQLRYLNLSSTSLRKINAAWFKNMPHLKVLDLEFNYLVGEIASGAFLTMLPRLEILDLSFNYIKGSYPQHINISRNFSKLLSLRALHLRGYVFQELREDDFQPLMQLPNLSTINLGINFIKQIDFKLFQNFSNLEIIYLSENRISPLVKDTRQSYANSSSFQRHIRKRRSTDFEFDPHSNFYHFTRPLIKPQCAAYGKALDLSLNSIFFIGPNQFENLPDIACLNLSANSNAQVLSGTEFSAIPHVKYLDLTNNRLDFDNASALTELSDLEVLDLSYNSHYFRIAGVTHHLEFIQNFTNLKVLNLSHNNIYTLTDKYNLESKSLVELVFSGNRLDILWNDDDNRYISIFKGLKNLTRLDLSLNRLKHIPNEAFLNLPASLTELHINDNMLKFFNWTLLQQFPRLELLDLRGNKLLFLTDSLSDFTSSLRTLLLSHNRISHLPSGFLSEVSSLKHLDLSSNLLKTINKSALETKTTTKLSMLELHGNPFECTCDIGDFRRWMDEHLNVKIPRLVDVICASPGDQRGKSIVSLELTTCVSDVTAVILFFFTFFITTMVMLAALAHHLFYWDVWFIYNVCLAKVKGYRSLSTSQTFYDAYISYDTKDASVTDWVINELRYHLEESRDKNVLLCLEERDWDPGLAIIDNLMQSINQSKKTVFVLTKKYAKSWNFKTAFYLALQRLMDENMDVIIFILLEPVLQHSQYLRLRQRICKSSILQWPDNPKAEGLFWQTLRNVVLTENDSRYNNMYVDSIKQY
The test is described as follows: Human whole blood assay, TLR8-specific agonist stimulation, IL-6 by AlphaLISA. The settings on record: TLR8-specific agonist 0.5 µM, IL-6 readout, read-out: IC50 TLR8 (IL6 READOUT) HUMAN WHOLE BLOOD (N=2). The class given is cell-based. The method, then:
(§1) Human whole blood from healthy donors was drawn into EDTA Vacutainer tubes and the experiment started within 2 hr of draw. Four parts blood was diluted with 1 part PBS. 10 mM compounds stock solutions were serially diluted 1:3 eleven times in DMSO. Each serial dilution was further diluted by transferring 3 µl to 100 µl RPMI. For the stimulation only and no stimulation controls, 3 µl 100% DMSO was transferred to 100 µl RPMI. Then, 5 µl of each of these dilutions were transferred to 96-well tissue culture grade U-bottom plate in triplicate for each ligand and each donor. Final inhibitor concentrations were 10, 3.3, 1.1, 0.37, 0.12, 0.04, 0.014, 0.0046, 0.0015, 0.00051, 0.00017, 0.00006 µM. No inhibitor (stimulation only) controls were included in triplicate for each donor. Diluted blood was dispensed on top of inhibitor dilutions at 150 µl/well. Plates were incubated at 37° C. 5% CO2 for 30 min. For TLR7 stimulation, 10 mM stock of a TLR7-specific small molecule agonist in DMSO was diluted to 90 µM in RPMI and 5 µl were added to each inhibitor dilution for each donor. Final concentration was 3 µM. For TLR8 stimulation, 10 mM stock of a TLR8-specific small molecule agonist in DMSO was diluted to 15 µM in RPMI and 5 µl were added to each inhibitor dilution for each donor. Final concentration was 0.5 µM. No stimulation controls were included in triplicate for each donor. Plates were incubated at 37° C. 5% CO2 overnight. Next day, plasma was collected and IL-6 was measured by AlphaLISA (PerkinElmer AL223 according to manufacturer’s protocol.

The target in test [2] is T2, TLR7 (Homo sapiens, UniProt Q9NYK1).
T2 sequence (Q9NYK1 27-1049): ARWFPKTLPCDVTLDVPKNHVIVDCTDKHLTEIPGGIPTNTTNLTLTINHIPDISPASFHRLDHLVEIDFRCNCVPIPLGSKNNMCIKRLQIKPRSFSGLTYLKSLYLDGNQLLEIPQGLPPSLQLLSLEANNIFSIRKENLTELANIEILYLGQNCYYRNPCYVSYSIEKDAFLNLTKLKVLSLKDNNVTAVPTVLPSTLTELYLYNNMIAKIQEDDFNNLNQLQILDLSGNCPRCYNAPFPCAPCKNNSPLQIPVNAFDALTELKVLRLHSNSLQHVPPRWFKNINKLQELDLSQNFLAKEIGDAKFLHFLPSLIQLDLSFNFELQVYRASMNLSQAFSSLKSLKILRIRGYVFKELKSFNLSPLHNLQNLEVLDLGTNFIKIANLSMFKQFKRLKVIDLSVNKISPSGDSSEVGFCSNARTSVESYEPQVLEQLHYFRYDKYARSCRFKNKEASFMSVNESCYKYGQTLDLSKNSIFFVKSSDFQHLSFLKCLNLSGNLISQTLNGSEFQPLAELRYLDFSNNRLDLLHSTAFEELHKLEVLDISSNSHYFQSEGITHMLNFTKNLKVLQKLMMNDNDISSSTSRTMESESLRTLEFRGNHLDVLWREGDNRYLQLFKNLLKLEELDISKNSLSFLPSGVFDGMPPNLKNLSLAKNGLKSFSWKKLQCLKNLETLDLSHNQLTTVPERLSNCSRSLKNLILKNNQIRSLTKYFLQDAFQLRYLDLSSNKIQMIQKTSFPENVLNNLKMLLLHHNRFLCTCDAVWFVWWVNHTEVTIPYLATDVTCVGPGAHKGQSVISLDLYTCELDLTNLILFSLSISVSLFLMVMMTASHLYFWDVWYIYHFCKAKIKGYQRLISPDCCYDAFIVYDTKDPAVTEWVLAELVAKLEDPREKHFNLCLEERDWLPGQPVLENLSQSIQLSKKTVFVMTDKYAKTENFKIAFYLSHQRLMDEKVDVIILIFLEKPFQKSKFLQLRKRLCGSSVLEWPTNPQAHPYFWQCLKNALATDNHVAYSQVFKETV
The test is described as follows: Human whole blood assay, TLR7-specific agonist stimulation, IL-6 by AlphaLISA. The class given is cell-based. Further details: Human whole blood from healthy donors was drawn into EDTA Vacutainer tubes; endogenous in cells; host or cells: human whole blood (healthy donors). The settings on record: TLR7-specific agonist 3 µM, IL-6 readout, read-out: IC50 TLR7 (IL6 READOUT) HUMAN WHOLE BLOOD (N=2). How it is done:
as §1

As for `COc1ccc2nc3cc(Cl)ccc3c(Nc3cc(CN4CCCC4)c(O)c(CN4CCCC4)c3)c2n1` [Compound 1, Pyronaridine], the IC50 was found to be 610 nM in test [1] and 210 nM in test [2].
As for `CCN(CCO)CCCC(C)Nc1ccnc2cc(Cl)ccc12` (stereo not shown) [HYDROXY-CHLOROQUINE HCQ, hydroxychloroquine], the IC50 turned out to be 1240 nM in test [1] and 960 nM in test [2].
